Assay results taken from US8859625B2, “Methods to prepare penta-1,4-dien-3-ones and substituted cyclohexanones and derivatives with antitumoral and antiparasitic properties, the compounds and their uses” (Universidade Bandeirante de Sao Paulo-Academia, Paulista …, priority 2006, dated 2014).
Marks after values point to notes of the source that are not given here.

Experiments:
B16F10 melanoma = assay: Cell cycle phases by flow cytometry of melanoma dorsal tumors treated for 14 days; type: in vivo, C57BL/6J mice; conditions: 15 mg/kg HB-1 diluted in Miglyol 810, intraperitoneal
Method: Determination of Cell Cycle Phases Through Flow Cytometry of Melanoma Dorsal Tumors Treated for 14 Days with the HB-1 Compound by the Intraperitoneal Route.
Aliquots of the tumoral cells suspensions (10^6 cells/mL) for the control group that received Miglyol 810® vehicle and of the animals treated with the HB-1 compound for 14 days by the intraperitoneal route were immediately frozen in citrate (2 mM), sucrose (25 mM), and 0.05% dimethyl sulfoxide (DMSO) buffer, kept in liquid nitrogen up to the moment of use. After sample thawing in an ice bath, the cells were incubated with 375 μL of 0.03 g/L trypsin (Sigma) for 10 minutes, at room temperature, and neutralized with 0.5 g/L trypsin inhibitor (Sigma), 0.1 g/L ribonuclease A (Sigma), and 1.2 g/L spermine (Sigma). The samples were analysed by a flow cytometer (Becton-Dickson) and the percentage of cells was evaluated for the different phases of the cell cycle, apoptosis level (Sub-G1), and DNA content in phase S, quiescent cells (G0/G1), and cells in premytosis (G2/M).

[1] = test system: promastigote form of Leishmania (L) amazonensis (LV79 isolate); assay: Promastigote viability by the MTT method in RPMI medium; type: cell-based
Method: Viability and/or cellular proliferative assays of promastigote and amastigote forms are also performed by the MTT (diphenyl tetrazolium 3-[4,5-dimethylthiazol-2il]2,5-bromide) method as described by Moreira, et al. (Moreira, M. E. C., Del Portillo, H. A., Milder, R. V., Balanco, J. M. F. and Barcinski, M. A. Heat shock induction of apoptosis in promastigotes of the unicellular organism Leishmania (Leishmania) amazonensis, J. Cell Physiol 167, 305-313, 1996), modified.
After incubation of parasitic forms with the compounds, as described above, for predetermined periods of time for each experiment (24, 48, 72 hours, etc.), an 1.0 mL aliquot of cellular suspension is collected from each culture tube or vial and transferred to microcentrifuge tubes, where they are centrifuged at 14.000 rpm for 3 minutes, the culture medium is aspirated and discharged. To the sedimented cells are add 200 μL of PBS. After that, the volume in PBS of the cellular suspensions is splitted into two wells (duplicates of 100 μL each) of a 96 well culture plate. To each duplicate, […] of MTT (5 mg/mL stock solution, […]) are added. After 1 h or 1 h 30 min, at a temperature of 22° C. (promastigotes) or 34° C. (amastigotes), 100 μL of 10% SDS are added to each well to interrupt the reaction, to lyse the cells and to dissolve the formazan crystals, resulting in an homogeneous blue solution appropriate to the absorbance measure by a spectrophotometer for culture microplates (3550 BIORAD model, Richmond, Calif.), at 595 nm as test wavelength and 690 nm as the reference wavelength.
The optical density (O.D.) values correspond to MTT enzymatic reduction by the metabolic active cells. Consequently, the O.D. is directly proportional to the number of viable cells of the cellular suspension. The progressive increase of O.D. indicates cellular proliferation. Results are expressed as arithmetic average of the optical density duplicates.
Blanks of reaction are obtained by incubating of the specific medium employed in each assay, in addition to MTT, and different HB-1 concentrations. The brownish-yellow color of HB-1 exerts certain interference on the colorimetric assay at different magnitudes, according to the medium and to HB-1 concentration. In general the O.D. blank ranged among assays from 0.002 to 0.020.
In this assay, viability of the promastigote form Leishmania is assessed by the MTT method, when incubated in RPMI medium, in the presence of HB-1 or of its respective controls in DMSO. It is also possible to verify if the effect of HB-1 could be detected in the stationary phase of the growth curve.
For the incubations, promastigotes of the LV79 isolate, in 1st passage and in Day 7 of culture, are employed, from a 1.0×10^6/mL as initial inoculum. The final reaction volume is of 3.0 mL. The results of the viability determination for the promastigote forms of Leishmania (L) amazonensis treated with HB-1 in RPMI medium are shown in the next Table and in FIG. 35.

COc1cc(C=CC(=O)C=Cc2ccc(O)c(OC)c2)ccc1O [HB-1, 1,5-Bis-(4-hydroxy-3-methoxy-phenyl)-penta-1,4-dien-3-one]
tumoral cell population in the G0/G1 phase of the cell cycle (B16F10 melanoma): significantly reduces | Optical Density 595/690 nm (average value from duplicates) ([1]; HB-1 3.12 μg/mL, 24 hours): 0.062 | Optical Density 595/690 nm (average value from duplicates) ([1]; HB-1 3.12 μg/mL, 48 hours): 0.085 | Optical Density 595/690 nm (average value from duplicates) ([1]; HB-1 3.12 μg/mL, 72 hours): 0.104* | Optical Density 595/690 nm (average value from duplicates) ([1]; HB-1 3.12 μg/mL, 144 hours): 0.021 | effect in words ([1]; HB-1 6.25 μg/mL): leishmaniostatic effect | Optical Density 595/690 nm (average value from duplicates) ([1]; HB-1 6.25 μg/mL, 24 hours): 0.039 | Optical Density 595/690 nm (average value from duplicates) ([1]; HB-1 6.25 μg/mL, 48 hours): 0.033 | Optical Density 595/690 nm (average value from duplicates) ([1]; HB-1 6.25 μg/mL, 72 hours): 0.044 | Optical Density 595/690 nm (average value from duplicates) ([1]; HB-1 6.25 μg/mL, 144 hours): 0.031 | Optical Density 595/690 nm (average value from duplicates) ([1]; HB-1 12.5 μg/mL, 24 hours): 0.010 | Optical Density 595/690 nm (average value from duplicates) ([1]; HB-1 12.5 μg/mL, 48 hours): 0.004 | Optical Density 595/690 nm (average value from duplicates) ([1]; HB-1 12.5 μg/mL, 72 hours): 0.003 | Optical Density 595/690 nm (average value from duplicates) ([1]; HB-1 12.5 μg/mL, 144 hours): 0.005 | Optical Density 595/690 nm (average value from duplicates) ([1]; HB-1 25 μg/mL, 24 hours): 0.004 | Optical Density 595/690 nm (average value from duplicates) ([1]; HB-1 25 μg/mL, 48 hours): 0.005 | Optical Density 595/690 nm (average value from duplicates) ([1]; HB-1 25 μg/mL, 72 hours): 0.002 | Optical Density 595/690 nm (average value from duplicates) ([1]; HB-1 25 μg/mL, 144 hours): 0.005 | Optical Density 595/690 nm (average value from duplicates) ([1]; HB-1 50 μg/mL, 24 hours): 0.008 | Optical Density 595/690 nm (average value from duplicates) ([1]; HB-1 50 μg/mL, 48 hours): 0.004 | Optical Density 595/690 nm (average value from duplicates) ([1]; HB-1 50 μg/mL, 72 hours): 0.005 | Optical Density 595/690 nm (average value from duplicates) ([1]; HB-1 50 μg/mL, 144 hours): 0.005 | Optical Density 595/690 nm (average value from duplicates) ([1]; HB-1 100 μg/mL, 24 hours): 0.016 | Optical Density 595/690 nm (average value from duplicates) ([1]; HB-1 100 μg/mL, 48 hours): 0.012 | Optical Density 595/690 nm (average value from duplicates) ([1]; HB-1 100 μg/mL, 72 hours): 0.011 | Optical Density 595/690 nm (average value from duplicates) ([1]; HB-1 100 μg/mL, 144 hours): 0.011 | effect in words ([1]; HB-1 above 12.5 μg/mL): clear leishmanicidal effect | cell viability in words ([1]; HB-1 between 6.25 μg/mL and 100 μg/mL, since first 24 hours): irreversibly compromise cell viability
